Patent publication US20080275018A1, “ANTIBACTERIAL AMIDE-MACROCYCLES V” (AiCuris GmbH & Co. KG, priority 2005, published 2008)
pIC50: −log10 of the molar value. ≈ marks a conversion by molar mass, not a printed value. Structures can show the parent of a compound that is named as a salt. Where two headings read alike, the source gives them in different places.

Experiments:
S. aureus 133 = assay: Minimum inhibitory concentration (MIC), S. aureus 133; type: cell-based, Staphylococcus aureus
Procedure: (§1) The minimum inhibitory concentration (MIC) is the minimum concentration of an antibiotic with which the growth of a test microbe is inhibited over 18-24 h. The inhibitor concentration can in these cases be determined by standard microbiological methods (see, for example, The National Committee for Clinical Laboratory Standards. Methods for dilution antimicrobial susceptibility tests for bacteria that grow aerobically; approved standard-fifth edition. NCCLS document M7-A5 [ISBN 1-56238-394-9]. NCCLS, 940 West Valley Road, Suite 1400, Wayne, Pa. 19087-1898 USA, 2000). The test substances are thereby initially provided in 1:2 dilution series into 96-well round-bottom microtiter plates (Greiner) double-concentrated in 50 μl of test medium. The aerobically growing test microbes (e.g. staphylococci and enterococci), which are incubated overnight on Columbia blood agar plates (Becton-Dickinson), are, after resuspension in 0.9% NaCl, adjusted to a microbe count of about 5×10^7 microbes/ml and then diluted 1:150 in cation-adjusted MH medium (test medium). 50 μL of this suspension are pipetted onto the test preparations provided in the microtiter plates. The cultures are incubated at 37° C. for 18-24 hours. For microaerophilically growing microbes (e.g. streptococci), 2% lysed horse blood in the final concentration is added to the medium and the cultures are incubated in the presence of 5% CO2. The lowest substance concentration in each case at which no visible bacterial growth occurs any longer is defined as the MIC and is reported in μg/ml.
(§2) The minimum inhibitory concentration (MIC) is the minimum concentration of an antibiotic with which the growth of a test microbe is inhibited over 18-24 h. The inhibitor concentration can in these cases be determined by standard microbiological methods (see, for example, The National Committee for Clinical Laboratory Standards. Methods for dilution antimicrobial susceptibility tests for bacteria that grow aerobically; approved standard-fifth edition. NCCLS document M7-A5 [ISBN 1-56238-394-9]. NCCLS, 940 West Valley Road, Suite 1400, Wayne, Pa. 19087-1898 USA, 2000). The MIC of the compounds of the invention is determined in the liquid dilution test on the 96-well microtiter plate scale. The bacterial microbes are cultivated in a minimal medium (18.5 mM Na2HPO4, 5.7 mM KH2PO4, 9.3 mM NH4Cl, 2.8 mM MgSO4, 17.1 mM NaCl, 0.033 μg/ml thiamine hydrochloride, 1.2 μg/ml nicotinic acid, 0.003 μg/ml biotin, 1% glucose, 25 μg/ml of each proteinogenic amino acid with the exception of phenylalanine; [H.-P. Kroll; unpublished]) with the addition of 0.4% BH broth (test medium). In the case of Enterococcus faecium L4001, heat-inactivated fetal calf serum (FCS; GibcoBRL, Germany) is added to the test medium in a final concentration of 10%. Overnight cultures of the test microbes are diluted to an OD578 of 0.001 (to 0.01 in the case of enterococci) in fresh test medium, and incubated 1:1 with dilutions of the test substances (1:2 dilution steps) in test medium ([…]). The cultures are incubated at 37° C. for 18-24 hours; enterococci in the presence of 5% CO2.
(§3) The lowest substance concentration in each case at which no visible bacterial growth occurs any longer is defined as the MIC.
(§4) The minimum inhibitory concentration (MIC) is the minimum concentration of an antibiotic with which the growth of a test microbe is inhibited over 18-24 h. The inhibitor concentration can in these cases be determined by standard microbiological methods with modified medium in an agar dilution test (see, for example, The National Committee for Clinical Laboratory Standards. Methods for dilution antimicrobial susceptibility tests for bacteria that grow aerobically; approved standard-fifth edition. NCCLS document M7-A5 [ISBN 1-56238-394-9]. NCCLS, 940 West Valley Road, Suite 1400, Wayne, Pa. 19087-1898 USA, 2000). The bacterial microbes are cultivated on 1.5% agar plates which contain 20% defibrinated horse blood. […]

E. faecium L4001 = assay: Minimum inhibitory concentration (MIC), E. faecium L4001; type: cell-based, Enterococcus faecium; details: Enterococcus faecium
Procedure: as §2, §3

[1] = target: S. aureus 133 Translation; assay: S. aureus in vitro transcription-translation assay (firefly luciferase, S30 extract); type: biochemical; details: 50% inhibition of the translation of firefly luciferase
From the text: For the construction of a reporter plasmid which can be used in an in vitro transcription-translation assay from S. aureus the plasmid pBESTluc (Promega Corporation, USA) is used. The E. coli tac promoter present in this plasmid in front of the firefly luciferase is replaced by the capA1 promoter with corresponding Shine-Dalgarno sequence from S. aureus. The primers CAPFor 5′-[…]-[…] GCCA-3′ and CAPRev 5′-[…]-3′ are used for this. The primer CAPFor contains the capA1 promoter, the ribosome binding site and the 5′ region of the luciferase gene. After PCR using pBESTluc as template it is possible to isolate a PCR product which contains the firefly luciferase gene with the fused capA1 promoter. This is, after restriction with ClaI and HindIII, ligated into the vector pBESTluc which has likewise been digested with ClaI and HindIII. The resulting plasmid pla can be replicated in E. coli and be used as template in the S. aureus in vitro transcription-translation test.
Six litres of BHI medium are inoculated with a 250 ml overnight culture of an S. aureus Strain and allowed to grow at 37° C. until the OD600 nm is 2-4. The cells are harvested by centrifugation and washed in 500 ml of cold buffer A (10 mM Tris acetate, pH 8.0, 14 mM magnesium acetate, 1 mM DTT, 1 M KCl). After renewed centrifugation, the cells are washed in 250 ml of cold buffer A with 50 mM KCl, and the resulting pellets are frozen at −20° C. for 60 min. The pellets are thawed on ice in 30 to 60 min and taken up to a total volume of 99 ml in buffer B (10 mM Tris acetate, pH 8.0, 20 mM magnesium acetate, 1 mM DTT, 50 mM KCl). 1.5 ml portions of lysostaphin (0.8 mg/ml) in buffer B are provided in 3 precooled centrifuge cups and each mixed with 33 ml of the cell suspension. The samples are incubated at 37° C., shaking occasionally, for 45 to 60 min, before 150 μl of a 0.5 M DTT solution are added. The lysed cells are centrifuged at 30 000×g and 4° C. for 30 min. The cell pellet is taken up in buffer B and then centrifuged again under the same conditions, and the collected supernatants are combined. The supernatants are centrifuged again under the same conditions, and 0.25 volumes of buffer C (670 mM Tris acetate, pH 8.0, 20 mM magnesium acetate, 7 mM Na3 phosphoenolpyruvate, 7 mM DTT, 5.5 mM ATP, 70 μM amino acids (complete from Promega), 75 μg of pyruvate kinase (Sigma, Germany)/ml are added to the upper ⅔ of the supernatant. The samples are incubated at 37° C. for 30 min. The supernatants are dialysed against 2 l of dialysis buffer (10 mM Tris acetate, pH 8.0, 14 mM magnesium acetate, 1 mM DTT, 60 mM potassium acetate) in a dialysis tube with a 3500 Da cut-off with one buffer change at 4° C. overnight. The dialysate is concentrated to a protein concentration of about 10 mg/ml by
covering the dialysis tube with cold PEG 8000 powder (Sigma, Germany) at 4° C. The S30 extracts can be stored in aliquots at −70° C.
The inhibition of protein biosynthesis of the compounds can be shown in an in vitro transcription-translation assay. The assay is based on the cell-free transcription and translation of firefly luciferase using the reporter plasmid pla as template and cell-free S30 extracts obtained from S. aureus. The activity of the resulting luciferase can be detected by luminescence measurement.
The amount of S30 extract or plasmid pla to be employed must be tested anew for each preparation in order to ensure an optimal concentration in the test. […] of the substance to be tested, dissolved in 5% DMSO, are introduced into an MTP. Then […] of a suitably concentrated plasmid solution pla are added. […]

S. aureus T17 = assay: Minimum inhibitory concentration (MIC), biphenomycin-resistant S. aureus T17; type: cell-based, Staphylococcus aureus; details: Staphylococcus aureus; biphenomycin-resistant S. aureus T17
Procedure: as §1, §2, §3, §4

[2] = Staphylococcus aureus, 133, read-out: MIC S. aureus 133
[3] = L4001, read-out: MIC E. faecium L4001
[4] = Staphylococcus aureus, 133; read-out: MIC S. aureus 133
[5] = E. faecium L4001, 10% FCS in test medium, read-out: MIC E. faecium L4001

Structure (SMILES): NCCC[C@H](N)CNC(=O)C[C@@H](N)CCCNC(=O)[C@H](CCCN)NC(=O)[C@@H]1Cc2cccc(c2)-c2ccc(O)c(c2)C[C@H](N)C(=O)N[C@@H](CCCN)C(=O)N1 [Example 15, (8S,11S,14S)-14-Amino-N-((1S)-4-amino-1-{[((4S)-4-amino-6-{[(2S)-2,5-diaminopentyl]-amino}-6-oxohexyl)amino]carbonyl}butyl)-11-(3-aminopropyl)-17-hydroxy-10,13-dioxo-9,12-diazatricyclo[14.3.1.1^2,6]henicosa-1 (20),2(21),3,5,16,18-hexaene-8-carboxamide hexahydrochloride]
- MIC (S. aureus 133; [2]): 1 µg/mL
- MIC (E. faecium L4001; [3]): > 32 µg/mL
- pIC50 [1]: 7.00
- MIC (S. aureus T17): 2 µg/mL

Structure (SMILES): NCCC[C@H](N)CNC(=O)C[C@H](CCCN)NC(=O)[C@@H]1Cc2cccc(c2)-c2ccc(O)c(c2)C[C@H](N)C(=O)N[C@@H](CCCN)C(=O)N1 [Example 19, (8S,11S,14S)-14-Amino-N-[(1S)-4-amino-1-(2-{[(2S)-2,5-diaminopentyl]amino}-2-oxoethyl)butyl]-11-(3-aminopropyl)-17-hydroxy-10,13-dioxo-9,12-diazatricyclo[14.3.1.1^2,6]henicosa-1 (20),2(21),3,5,16,18-hexaene-8-carboxamide penta(hydrotrifluoroacetate)]
- MIC (S. aureus 133; [4]): 1 µg/mL (≈ 1.5 µM)
- MIC (E. faecium L4001; [5]): 16 µg/mL (≈ 24 µM)
- pIC50 [1]: 7.00
- MIC (S. aureus T17): 1 µg/mL (≈ 1.5 µM)

Structure (SMILES): NCCC[C@H](N)CNC(=O)[C@H](CCCN)NC(=O)[C@@H]1Cc2cccc(c2)-c2ccc(O)c(c2)C[C@H](N)C(=O)N[C@@H](CCCN)C(=O)N1 [Example 3, (8S,11S,14S)-14-Amino-N-[(s)-4-amino-1-({[(25)-2,5-diaminopentyl]amino}carbonyl)butyl]-11-(3-aminopropyl)-17-hydroxy-10,13-dioxo-9,12-diazatricyclo[14.3.1.1^2,6]henicosa-1(20),2(21),3,5,16,18-hexaene-8-carboxamide pentahydrochloride]
- MIC (S. aureus 133; [4]): 2 µg/mL
- MIC (E. faecium L4001; [5]): 16 µg/mL
- pIC50 [1]: 6.70
- MIC (S. aureus T17): 2 µg/mL

Structure (SMILES): CN1C(=O)[C@H](C[C@@H](O)CN)NC(=O)[C@@H](N)Cc2cc(ccc2O)-c2cccc(c2)C[C@H]1C(=O)NCCC(=O)NC[C@@H](N)CCCN [Example 68]
- MIC (S. aureus 133; [4]): 1 µg/mL (≈ 1.56 µM)
- MIC (E. faecium L4001; [5]): 8 µg/mL (≈ 12.5 µM)
- pIC50 [1]: 6.70
- MIC (S. aureus T17): 1 µg/mL (≈ 1.56 µM)

Structure (SMILES): NCCC[C@H](NC(=O)[C@@H]1Cc2cccc(c2)-c2ccc(O)c(c2)C[C@H](N)C(=O)N[C@@H](CCCN)C(=O)N1)C(=O)NCCC[C@H](N)CC(=O)NCCN [Example 12, (8S,11S,14S)-14-Amino-N-{(1S)-4-amino-1-[({(4S)-4-amino-6-[(2-aminoethyl)amino]-6-oxohexyl}amino)carbonyl]butyl}-11-(3-aminopropyl)-17-hydroxy-10,13-dioxo-9,12-diazatricyclo[14.3.1.1^2,6]henicosa-1(20),2(21),3,5,16,18-hexaene-8-carboxamide pentahydrochloride]
- MIC (S. aureus 133; [2]): 1 µg/mL
- MIC (E. faecium L4001; [3]): 16 µg/mL
- MIC (S. aureus T17): 1 µg/mL

Structure (SMILES): NCCNC(=O)[C@@H](N)CCCNC(=O)[C@@H]1Cc2cccc(c2)-c2ccc(O)c(c2)C[C@H](N)C(=O)N[C@@H](C[C@@H](O)CN)C(=O)N1 [Example 5, (8S,11S,14S)-14-Amino-N-{(4S)-4-amino-5-[(2-aminoethyl)amino]-5-oxopentyl}-11-[(2R)-3-amino-2-hydroxypropyl]-17-hydroxy-10,13-dioxo-9,12-diazatricyclo[14.3.1.1^2,6]-henicosa-1(20),2(21),3,5,16,18-hexaene-8-carboxamide tetrahydrochloride]
- MIC (S. aureus 133; [2]): 1 µg/mL
- MIC (E. faecium L4001; [3]): 2 µg/mL
- pIC50 [1]: 6.70
- MIC (S. aureus T17): 1 µg/mL

Structure (SMILES): NCCC[C@H](NC(=O)[C@@H]1Cc2cccc(c2)-c2ccc(O)c(c2)C[C@H](N)C(=O)N[C@@H](C[C@@H](O)CN)C(=O)N1)C(=O)NCCN [Example 1, (8S,11S,14S)-14-Amino-N-((1S)-4-amino-1-{[(2-aminoethyl)amino]carbonyl)}butyl)-11-[(2R)-3-amino-2-hydroxypropyl]-17-hydroxy-10,13-dioxo-9,12-diazatricyclo[14.3.1.1^2,6]-henicosa-1 (20),2(21),3,5,16,18-hexaene-8-carboxamide tetrahydrochloride]
- MIC (S. aureus 133; [4]): 0.5 µg/mL
- MIC (E. faecium L4001; [5]): 4 µg/mL
- pIC50 [1]: 7.15
- MIC (S. aureus T17): 1 µg/mL
